# Literature values in patent US10034966B2, “Coated vaso-occlusive device and methods for treatment of aneurysms” (Carnegie Mellon University, priority 2013, dated 2018).
# Test system: L929 fibroblasts
smiles,measurement,setting,value
"COC(=O)C1=CO[C@@H](O)[C@@H]2C(CO)=CC[C@H]12 [genipin, methyl (1S,2R,6S)-2-hydroxy-9-(hydroxymethyl)-3-oxabicyclo[4.3.0]nona-4,8-diene-5-carboxylate]",cell death to L929 fibroblasts,exposures of 5 mM and 10 mM,can cause cell death
same,"cytotoxicity, cell samples compared with controls",incubated in 1 mM,indistinguishable from controls
